Columns and labels:
late watergrass = assay: Test Example 2: herbicidal activity, application during weed generation under submerged conditions (Table 17, symbol A); assay type: in vivo, late watergrass (Echinochloa oryzicola); details: application during weed generation, submerged conditions
How it was run: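 Effect on each weed is rated three weeks post-treatment, using the same scoring criteria as the preceding test. Plants grow from mixed-sown seed in flooded alluvial soil (4 cm water) at 25° C. to 30° C., and are treated at one to two leaves with diluted emulsion dropped onto the water.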

persian speedwell = assay: Test Example 4: herbicidal effect by soil treatment (Table 19, symbol R); assay type: in vivo, Persian speedwell (Veronica persica); details: for herbicidal effect on R: persian speedwell / herbicidal effect rating, R: persian speedwell: amount of applied herbicide 320 g/ha
How it was run: (§1)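 Scoring uses the grading scale of an earlier test, three weeks post-application. Treatment consists of spraying a diluted emulsion formulation across the surface of sterilized diluvial soil in which seeds are buried near 1.5 cm deep; boxes are kept in a greenhouse between 25° C. and 30° C.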

lambsquarters [1] = assay: Test Example 5: herbicidal effect by foliage application, plastic box (Table 20, symbol O); assay type: in vivo, lambsquarters (Chenopodium album); details: foliage application
How it was run: (§2)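 Post-emergence foliar test in sterilized diluvial soil. Compound applied as water-diluted emulsion at a predetermined rate to 14-day-old plants; evaluation at three weeks.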

Japanese bulrush = assay: Test Example 1: herbicidal activity, application before weed generation under submerged conditions (Table 16, symbol B); assay type: in vivo, Japanese bulrush (Schoenoplectus juncoides); details: for Herbicidal effect on B: Japanese bulrush (grade 0-5): 320 g/ha applied herbicide
How it was run: (§3)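 Submerged Wagner pots (alluvial soil, 4 cm water) sown with weed seeds and planted with 2.5-leaf rice seedlings; emulsifiable concentrate diluted in water applied to water surface on sowing day. Held in greenhouse at 25-30 °C; injury scored 0-5 by herbicidal rate after three weeks.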

windgrass = assay: Test Example 4: herbicidal effect by soil treatment (Table 19, symbol L); assay type: in vivo, windgrass (Apera spica-venti); details: for herbicidal effect on L: windgrass / herbicidal effect rating, L: windgrass: amount of applied herbicide 320 g/ha
How it was run: as §1

barnyard grass [2] = assay: Test Example 4: herbicidal effect by soil treatment (Table 19, symbol H); assay type: in vivo, barnyard grass (Echinochloa crus-galli); details: for herbicidal effect on H: barnyard grass / herbicidal effect rating, H: barnyard grass: amount of applied herbicide 320 g/ha
How it was run: as §1

oval-leafed pondweed = assay: Test Example 1: herbicidal activity, application before weed generation under submerged conditions (Table 16, symbol C); assay type: in vivo, oval-leafed pondweed (Monochoria vaginalis); details: for Herbicidal effect on C: oval-leafed pondweed (grade 0-5): 320 g/ha applied herbicide
How it was run: as §3

blackgrass = assay: Test Example 5: herbicidal effect by foliage application, plastic box (Table 20, symbol J); assay type: in vivo, blackgrass (Alopecurus myosuroides); details: foliage application
How it was run: as §2

lambsquarters [3] = assay: Test Example 4: herbicidal effect by soil treatment (Table 19, symbol O); assay type: in vivo, lambsquarters (Chenopodium album); details: for herbicidal effect on O: lambsquarters / herbicidal effect rating, O: lambsquarters: amount of applied herbicide 320 g/ha
How it was run: as §1

barnyard grass [4] = assay: Test Example 3: herbicidal effect by foliage application, Wagner pot (Table 18, symbol H); assay type: in vivo, barnyard grass (Echinochloa crus-galli); details: for herbicidal effect on H: barnyard grass: amount of applied herbicide 320 g/ha; for herbicidal effect on H (barnyard grass), rating 0-5: 320 g/ha
How it was run: (§4)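 Plants were sown in alluvial soil held under 0.1–0.5 cm standing water and grown 14 days in a greenhouse at 25–30 °C. An emulsifiable formulation, water-diluted to the set dose, was then sprayed onto the foliage, and effects were scored three weeks later using previously defined criteria.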

Italian ryegrass = assay: Test Example 5: herbicidal effect by foliage application, plastic box (Table 20, symbol K); assay type: in vivo, Italian ryegrass (Lolium multiflorum); details: foliage application
How it was run: as §2

velvetleaf [5] = assay: Test Example 5: herbicidal effect by foliage application, plastic box (Table 20, symbol M); assay type: in vivo, velvetleaf (Abutilon theophrasti); details: foliage application
How it was run: as §2

barnyard grass [6] = assay: Test Example 5: herbicidal effect by foliage application, plastic box (Table 20, symbol H); assay type: in vivo, barnyard grass (Echinochloa crus-galli); details: foliage application
How it was run: as §2

Chinese sprangletop = assay: Test Example 3: herbicidal effect by foliage application, Wagner pot (Table 18, symbol D); assay type: in vivo, chinese sprangletop (Leptochloa chinensis); details: for herbicidal effect on D: Chinese sprangletop: amount of applied herbicide 320 g/ha; for herbicidal effect on D (Chinese sprangletop), rating 0-5: 320 g/ha
How it was run: as §4

redroot pigweed = assay: Test Example 5: herbicidal effect by foliage application, plastic box (Table 20, symbol N); assay type: in vivo, redroot pigweed (Amaranthus retroflexus); details: foliage application
How it was run: as §2

velvetleaf [7] = assay: Test Example 4: herbicidal effect by soil treatment (Table 19, symbol M); assay type: in vivo, velvetleaf (Abutilon theophrasti); details: for herbicidal effect on M: velvetleaf / herbicidal effect rating, M: velvetleaf: amount of applied herbicide 320 g/ha
How it was run: as §1

[8] = AAH 320 g/ha, evaluated three weeks after application
[9] = amount of applied herbicide 80 g/ha
[10] = 80 g/ha, three weeks after application
[11] = 320 g/ha, evaluated three weeks after application
[12] = 320 g/ha, three weeks after application

SMILES	herbicidal effect rating, A: late watergrass (late watergrass; AAH 320 g/ha)	herbicidal effect on R: persian speedwell (persian speedwell)	Herbicidal effect on B: Japanese bulrush (grade 0-5) (Japanese bulrush)	herbicidal effect on L: windgrass (windgrass)	herbicidal effect on H: barnyard grass (barnyard grass [2])	Herbicidal effect on C: oval-leafed pondweed (grade 0-5) (oval-leafed pondweed)	herbicidal effect on O: lambsquarters (lambsquarters [3])	herbicidal effect on H: barnyard grass (barnyard grass [4])	herbicidal effect on D: Chinese sprangletop (Chinese sprangletop)	herbicidal effect on M: velvetleaf (velvetleaf [7])	herbicidal effect rating, R: persian speedwell (persian speedwell)	herbicidal effect grade, O: lambsquarters (lambsquarters [1]; [12])	herbicidal effect rating, L: windgrass (windgrass)	herbicidal effect rating, H: barnyard grass (barnyard grass [2])	herbicidal effect grade, J: blackgrass (blackgrass; [12])	herbicidal effect rating, O: lambsquarters (lambsquarters [3])	herbicidal effect on H (barnyard grass), rating 0-5 (barnyard grass [4])	herbicidal effect grade, K: Italian ryegrass (Italian ryegrass; [12])	herbicidal effect grade, M: velvetleaf (velvetleaf [5]; [12])	herbicidal effect grade, H: barnyard grass (barnyard grass [6]; [12])	further results
Cc1nn(C)c(=O)c(-c2c(-c3ccc(CSCC(F)(F)F)cc3)sc3ccc(F)cc23)c1O [2-331]	3 (Herbicidal rate of 40% or more and less than 70%)	4 (Herbicidal rate of 70% or more and less than 90%)	3 (Herbicidal rate of 40% or more and less than 70%)	0 (Herbicidal rate of 5% or less (almost no effect))	3 (Herbicidal rate of 40% or more and less than 70%)	0 (Herbicidal rate of 5% or less (almost no effect))	4 (Herbicidal rate of 70% or more and less than 90%)	5 (Herbicidal rate of 90% or more (almost completely withered))	0 (Herbicidal rate of 5% or less (almost no effect))	2 (Herbicidal rate of 20% or more and less than 40%)											O: lambsquarters, herbicidal effect (criteria 0-5) (lambsquarters [1]; [8]): 5 (Herbicidal rate of 90% or more (almost completely withered)); J: blackgrass, herbicidal effect (criteria 0-5) (blackgrass; [8]): 4 (Herbicidal rate of 70% or more and less than 90%); K: Italian ryegrass, herbicidal effect (criteria 0-5) (Italian ryegrass; [8]): 4 (Herbicidal rate of 70% or more and less than 90%); M: velvetleaf, herbicidal effect (criteria 0-5) (velvetleaf [5]; [8]): 5 (Herbicidal rate of 90% or more (almost completely withered)); H: barnyard grass, herbicidal effect (criteria 0-5) (barnyard grass [6]; [8]): 5 (Herbicidal rate of 90% or more (almost completely withered)); N: redroot pigweed, herbicidal effect (criteria 0-5) (redroot pigweed; [8]): 5 (Herbicidal rate of 90% or more (almost completely withered))
CCOc1ccccc1-c1sc2cc(OC)ccc2c1-c1c(O)c(C)nn(C)c1=O [3-070]																					herbicidal effect rating, A: late watergrass (late watergrass; AAH 80 g/ha): 3 (Herbicidal rate of 40% or more and less than 70%); R: persian speedwell, herbicidal effect grade (persian speedwell; [9]): 5 (Herbicidal rate of 90% or more (almost completely withered)); O: lambsquarters, herbicidal effect grade (lambsquarters [1]; [10]): 5 (Herbicidal rate of 90% or more (almost completely withered)); Herbicidal effect, B: Japanese bulrush (Japanese bulrush; [9]): 5 (Herbicidal rate of 90% or more (almost completely withered)); L: windgrass, herbicidal effect grade (windgrass; [9]): 0 (Herbicidal rate of 5% or less (almost no effect)); H: barnyard grass, herbicidal effect grade (barnyard grass [2]; [9]): 0 (Herbicidal rate of 5% or less (almost no effect)); Herbicidal effect, C: oval-leafed pondweed (oval-leafed pondweed; [9]): 4 (Herbicidal rate of 70% or more and less than 90%); J: blackgrass, herbicidal effect grade (blackgrass; [10]): 5 (Herbicidal rate of 90% or more (almost completely withered)); O: lambsquarters, herbicidal effect grade (lambsquarters [3]; [9]): 0 (Herbicidal rate of 5% or less (almost no effect)); herbicidal effect on barnyard grass (H) (barnyard grass [4]; 80 g/ha): 5 (Herbicidal rate of 90% or more (almost completely withered)); K: Italian ryegrass, herbicidal effect grade (Italian ryegrass; [10]): 4 (Herbicidal rate of 70% or more and less than 90%); M: velvetleaf, herbicidal effect grade (velvetleaf [5]; [10]): 5 (Herbicidal rate of 90% or more (almost completely withered)); H: barnyard grass, herbicidal effect grade (barnyard grass [6]; [10]): 5 (Herbicidal rate of 90% or more (almost completely withered)); herbicidal effect on Chinese sprangletop (D) (Chinese sprangletop; 80 g/ha): 5 (Herbicidal rate of 90% or more (almost completely withered)); N: redroot pigweed, herbicidal effect grade (redroot pigweed; [10]): 5 (Herbicidal rate of 90% or more (almost completely withered)); M: velvetleaf, herbicidal effect grade (velvetleaf [7]; [9]): 0 (Herbicidal rate of 5% or less (almost no effect))
CCCCCOc1cccc(-c2sc3ccc(F)cc3c2-c2c(O)c(C)nn(C)c2=O)c1 [2-225]	3 (Herbicidal rate of 40% or more and less than 70%)	0 (Herbicidal rate of 5% or less (almost no effect))	3 (Herbicidal rate of 40% or more and less than 70%)	0 (Herbicidal rate of 5% or less (almost no effect))	0 (Herbicidal rate of 5% or less (almost no effect))	3 (Herbicidal rate of 40% or more and less than 70%)	3 (Herbicidal rate of 40% or more and less than 70%)	4 (Herbicidal rate of 70% or more and less than 90%)	3 (Herbicidal rate of 40% or more and less than 70%)	0 (Herbicidal rate of 5% or less (almost no effect))											herbicidal effect on O: lambsquarters (criteria 0-5) (lambsquarters [1]; [11]): 4 (Herbicidal rate of 70% or more and less than 90%); herbicidal effect on J: blackgrass (criteria 0-5) (blackgrass; [11]): 0 (Herbicidal rate of 5% or less (almost no effect)); herbicidal effect on K: Italian ryegrass (criteria 0-5) (Italian ryegrass; [11]): 0 (Herbicidal rate of 5% or less (almost no effect)); herbicidal effect on M: velvetleaf (criteria 0-5) (velvetleaf [5]; [11]): 5 (Herbicidal rate of 90% or more (almost completely withered)); herbicidal effect on H: barnyard grass (criteria 0-5) (barnyard grass [6]; [11]): 3 (Herbicidal rate of 40% or more and less than 70%); herbicidal effect on N: redroot pigweed (criteria 0-5) (redroot pigweed; [11]): 5 (Herbicidal rate of 90% or more (almost completely withered))
CCCCOc1ccc(-c2sc3ccccc3c2-c2c(O)c(C)nn(C)c2=O)cc1 [1-024]	4 (Herbicidal rate of 70% or more and less than 90%)		5 (Herbicidal rate of 90% or more (almost completely withered))			5 (Herbicidal rate of 90% or more (almost completely withered))					4 (Herbicidal rate of 70% or more and less than 90%)	5 (Herbicidal rate of 90% or more (almost completely withered))	0 (Herbicidal rate of 5% or less (almost no effect))	3 (Herbicidal rate of 40% or more and less than 70%)	4 (Herbicidal rate of 70% or more and less than 90%)	5 (Herbicidal rate of 90% or more (almost completely withered))	5 (Herbicidal rate of 90% or more (almost completely withered))	4 (Herbicidal rate of 70% or more and less than 90%)	5 (Herbicidal rate of 90% or more (almost completely withered))	5 (Herbicidal rate of 90% or more (almost completely withered))	herbicidal effect on D (Chinese sprangletop), rating 0-5 (Chinese sprangletop): 4 (Herbicidal rate of 70% or more and less than 90%); herbicidal effect grade, N: redroot pigweed (redroot pigweed; [12]): 5 (Herbicidal rate of 90% or more (almost completely withered)); herbicidal effect rating, M: velvetleaf (velvetleaf [7]): 4 (Herbicidal rate of 70% or more and less than 90%)
CCCOc1ccc(-c2sc3ccccc3c2-c2c(O)c(C)nn(C)c2=O)cc1 [1-019]	3 (Herbicidal rate of 40% or more and less than 70%)		5 (Herbicidal rate of 90% or more (almost completely withered))			4 (Herbicidal rate of 70% or more and less than 90%)					5 (Herbicidal rate of 90% or more (almost completely withered))	5 (Herbicidal rate of 90% or more (almost completely withered))	0 (Herbicidal rate of 5% or less (almost no effect))	3 (Herbicidal rate of 40% or more and less than 70%)	4 (Herbicidal rate of 70% or more and less than 90%)	4 (Herbicidal rate of 70% or more and less than 90%)	5 (Herbicidal rate of 90% or more (almost completely withered))	4 (Herbicidal rate of 70% or more and less than 90%)	5 (Herbicidal rate of 90% or more (almost completely withered))	5 (Herbicidal rate of 90% or more (almost completely withered))	herbicidal effect on D (Chinese sprangletop), rating 0-5 (Chinese sprangletop): 4 (Herbicidal rate of 70% or more and less than 90%); herbicidal effect grade, N: redroot pigweed (redroot pigweed; [12]): 5 (Herbicidal rate of 90% or more (almost completely withered)); herbicidal effect rating, M: velvetleaf (velvetleaf [7]): 0 (Herbicidal rate of 5% or less (almost no effect))
